Experimental findings from patent publication US12202821B2, “Herbicidal compounds” (SYNGENTA CROP PROTECTION AG, priority 2019, dated 2025) are described below.

Holding throughout (assay type): in vivo
The subject of experiment [1] is AMAPA. Nature of the experiment: Pre-emergence biological efficacy. As to conditions: evaluated after 13 days; for pest or weed control at 250 g/ha: 312 h, read-out: damage to plant (100=total damage to plant; 0=no damage to plant), AMAPA. On the procedure: (§1) Pre-Emergence Biological Efficacy
(§2) Seeds of weeds and/or crops were sown in standard soil in pots. After cultivation for one day under controlled conditions in a glasshouse (at 24/16° C., day/night; 14 hours light; 65% humidity), the plants were sprayed with an aqueous spray solution derived from the formulation of the technical active ingredient in acetone/water (50:50) solution containing 0.5% Tween 20 (polyoxyethylene sorbitan monolaurate, CAS RN 9005-64-5) to give the desired final dose of test compound.
(§3) The test plants were then grown under controlled conditions in the glasshouse (at 24/16° C., day/night; 14 hours light; 65% humidity) and watered twice daily. After 13 days the test was evaluated (100=total damage to plant; 0=no damage to plant).

Experiment [2] has as its system ECHCG. Nature of the experiment: Pre-emergence biological efficacy. As to conditions: evaluated after 13 days; for pest or weed control at 250 g/ha: Echinochloa crus-galli, 312 h, read-out: damage to plant (100=total damage to plant; 0=no damage to plant), ECHCG. As to the method:
as §1, §2, §3

The test system of experiment [3] is EPHHL. Nature of the experiment: Pre-emergence biological efficacy. The settings on record: evaluated after 13 days; for pest or weed control at 250 g/ha: 312 h, read-out: damage to plant (100=total damage to plant; 0=no damage to plant), EPHHL. As to the method: as §1, §2, §3
The subject of experiment [4] is IPOHE. Briefly: Pre-emergence biological efficacy. As to conditions: evaluated after 13 days; for pest or weed control at 250 g/ha: Ipomoea hederacea, 312 h, read-out: damage to plant (100=total damage to plant; 0=no damage to plant), IPOHE. As to the method: as §1, §2, §3
Experiment [5] has as its system LOLPE. Nature of the experiment: Pre-emergence biological efficacy. As to conditions: evaluated after 13 days; for pest or weed control at 250 g/ha: 312 h, read-out: damage to plant (100=total damage to plant; 0=no damage to plant), LOLPE. On the procedure:
as §1, §2, §3

In experiment [6] the test system is SETFA. Nature of the experiment: Pre-emergence biological efficacy. As to conditions: evaluated after 13 days; for pest or weed control at 250 g/ha: Setaria faberi, 312 h, read-out: damage to plant (100=total damage to plant; 0=no damage to plant), SETFA. As to the method: as §1, §2, §3
Experiment [7] concerns AMAPA. Nature of the experiment: Post-emergence biological efficacy. The settings on record: evaluated after 13 days; for pest or weed control at 250 g/ha: 312 h, read-out: damage to plant (100=total damage to plant; 0=no damage to plant), AMAPA. On the procedure:
(§4) Post-Emergence Biological Efficacy
(§5) Seeds of weeds and/or crops were sown in standard soil in pots. After cultivation for 8 days under controlled conditions in a glasshouse (at 24/16° C., day/night; 14 hours light; 65% humidity), the plants were sprayed with an aqueous spray solution derived from the formulation of the technical active ingredient in acetone/water (50:50) solution containing 0.5% Tween 20 (polyoxyethylene sorbitan monolaurate, CAS RN 9005-64-5) to give the desired final dose of test compound.
(§6) The test plants were then grown on under controlled conditions in a glasshouse (at 24/16° C., day/night; 14 hours light; 65% humidity) and watered twice daily. After 13 days the test was evaluated (100=total damage to plant; 0=no damage to plant).

The subject of experiment [8] is CHEAL. Nature of the experiment: Post-emergence biological efficacy. The settings on record: evaluated after 13 days; for pest or weed control at 250 g/ha: Chenopodium album, 312 h, read-out: damage to plant (100=total damage to plant; 0=no damage to plant), CHEAL. As to the method:
as §4, §5, §6

Experiment [9] concerns DIGSA. Nature of the experiment: Post-emergence biological efficacy. As to conditions: evaluated after 13 days; for pest or weed control at 250 g/ha: Digitaria sanguinalis, 312 h, read-out: damage to plant (100=total damage to plant; 0=no damage to plant), DIGSA. On the procedure:
as §4, §5, §6

Experiment [10] deals with ECHCG. Briefly: Post-emergence biological efficacy. The settings on record: evaluated after 13 days; for pest or weed control at 250 g/ha: Echinochloa crus-galli, 312 h, read-out: damage to plant (100=total damage to plant; 0=no damage to plant), ECHCG. As to the method: as §4, §5, §6
The subject of experiment [11] is ELEIN. Nature of the experiment: Post-emergence biological efficacy. The settings on record: evaluated after 13 days; for pest or weed control at 250 g/ha: 312 h, read-out: damage to plant (100=total damage to plant; 0=no damage to plant), ELEIN. As to the method:
as §4, §5, §6

Experiment [12] deals with EPHHL. Briefly: Post-emergence biological efficacy. The settings on record: evaluated after 13 days; for pest or weed control at 250 g/ha: 312 h, read-out: damage to plant (100=total damage to plant; 0=no damage to plant), EPHHL. On the procedure: as §4, §5, §6
Experiment [13] concerns IPOHE. Briefly: Post-emergence biological efficacy. As to conditions: evaluated after 13 days; for pest or weed control at 250 g/ha: Ipomoea hederacea, 312 h, read-out: damage to plant (100=total damage to plant; 0=no damage to plant), IPOHE. On the procedure: as §4, §5, §6
Experiment [14] concerns LOLPE. Briefly: Post-emergence biological efficacy. As to conditions: evaluated after 13 days; for pest or weed control at 250 g/ha: 312 h, read-out: damage to plant (100=total damage to plant; 0=no damage to plant), LOLPE. On the procedure: as §4, §5, §6
Experiment [15] deals with SETFA. Nature of the experiment: Post-emergence biological efficacy. As to conditions: evaluated after 13 days; for pest or weed control at 250 g/ha: Setaria faberi, 312 h, read-out: damage to plant (100=total damage to plant; 0=no damage to plant), SETFA. As to the method:
as §4, §5, §6

For `CCOC(=O)C1(C)CC(c2cc(-n3c(=O)n(C)c(=S)n(C)c3=O)c(F)cc2Cl)=NO1` (single isomer, unassigned) [Compound 47 (enantiomer A)], the “damage to plant (100=total damage to plant; 0=no damage to plant), AMAPA” value in [1] (250 g/ha) and in [7] (250 g/ha) was 100 in each case. Besides, the “damage to plant (100=total damage to plant; 0=no damage to plant), ECHCG” value is 60 in experiment [2] (250 g/ha) and 100 in [10] (250 g/ha). For the same compound, the “damage to plant (100=total damage to plant; 0=no damage to plant), EPHHL” value in [3] (250 g/ha) was 100; in [12] (250 g/ha), 90. Also, the “damage to plant (100=total damage to plant; 0=no damage to plant), IPOHE” value is listed as 90 in experiment [4] (250 g/ha) and 100 in [13] (250 g/ha). The entries for the “damage to plant (100=total damage to plant; 0=no damage to plant), LOLPE” value in experiment [5] (250 g/ha) and in [14] (250 g/ha) were 50 and 70, respectively. In addition, the “damage to plant (100=total damage to plant; 0=no damage to plant), SETFA” value in experiment [6] (250 g/ha) and in experiment [15] (250 g/ha) was 100 each time. Further, the “damage to plant (100=total damage to plant; 0=no damage to plant), CHEAL” value in experiment [8] (250 g/ha) is recorded as 100. The “damage to plant (100=total damage to plant; 0=no damage to plant), DIGSA” value in experiment [9] (250 g/ha) was 100. The “damage to plant (100=total damage to plant; 0=no damage to plant), ELEIN” value in experiment [11] (250 g/ha) was 90.
Regarding `CC(=O)C1(C)CC(c2cc(-n3c(=O)n(C)c(=S)n(C)c3=O)c(F)cc2Cl)=NO1` (stereo not shown) [Compound 290, 3-[5-(5-Acetyl-5-methyl-4H-isoxazol-3-yl)-4-chloro-2-fluoro-phenyl]-1,5-dimethyl-6-thioxo-1,3,5-triazinane-2,4-dione], the pest or weed control at 250 g/ha in experiment [1] amounted to 100%; in experiment [2], 90%; in experiment [3], 100%; in experiment [4] it was 100%; in experiment [5], 90%; in [6] it was 100%. The pest or weed control at 250 g/ha came to 100% in experiment [7]; 100% in experiment [8]; 100% in [9]; 90% in experiment [10]; 100% in experiment [11]; 100% in [12]. Further, the pest or weed control at 250 g/ha in experiment [13] came to 100%; in [14], 90%; in experiment [15] it was 90%.
With `Cn1c(=S)n(C)c(=O)n(-c2cc(C3=NOC(C)(COS(C)(=O)=O)C3)c(Cl)cc2F)c1=O` (stereo not shown) [Compound 53, [3-[2-chloro-5-(3,5-dimethyl-2,6-dioxo-4-thioxo-1,3,5-triazinan-1-yl)-4-fluoro-phenyl]-5-methyl-4H-isoxazol-5-yl]methyl methanesulfonate], the pest or weed control at 250 g/ha in experiment [1] was found to be 100%; in [2], 60%; in experiment [4] it was 0%; in experiment [5], 70%; in experiment [6], 100%; in experiment [7] it was 90%. Moreover, the pest or weed control at 250 g/ha in experiment [8] amounted to 90%; in experiment [9] it was 70%; in experiment [10], 30%; in [11], 80%; in experiment [12], 90%; in [13], 80%. For the same compound, the pest or weed control at 250 g/ha in experiment [14] and in experiment [15] was 40% each time.
For `CCOC(=O)C1(C)CC(c2cc(-n3c(=O)n(C)c(=S)n(C)c3=O)ccc2Cl)=NO1` (stereo not shown) [Compound 36, Ethyl 3-[2-chloro-5-(3,5-dimethyl-2,6-dioxo-4-thioxo-1,3,5-triazinan-1-yl)phenyl]-5-methyl-4H-isoxazole-5-carboxylate], the pest or weed control at 250 g/ha in experiment [1] came to 70%; in [2], 90%; in experiment [3] it was 70%; in experiment [4], 40%; in [5] it was 10%; in experiment [6], 90%. The pest or weed control at 250 g/ha was 100% in experiment [7]; 90% in [8]; 100% in experiment [9]; 100% in [10]; 50% in experiment [11]; 90% in experiment [12]. Besides, the pest or weed control at 250 g/ha in experiment [13] was 70%; in experiment [14], 50%; in [15], 100%.
For `CC(=NO)C1(C)CC(c2cc(-n3c(=O)n(C)c(=S)n(C)c3=O)c(F)cc2Cl)NO1` (stereo not shown) [Compound 296, 3-[4-Chloro-2-fluoro-5-[5-[N-hydroxy-C-methyl-carbonimidoyl]-5-methyl-isoxazolidin-3-yl]phenyl]-1,5-dimethyl-6-thioxo-1,3,5-triazinane-2,4-dione], the pest or weed control at 250 g/ha in [1] was determined as 100%; in experiment [2], 80%; in experiment [3] it was 90%; in [4], 90%; in experiment [5] it was 80%; in experiment [6], 100%. Further, the pest or weed control at 250 g/ha in experiment [7] is 100%; in experiment [8] it was 100%; in [9], 70%; in experiment [10] it was 30%; in experiment [11] it was 90%; in experiment [12], 80%. The pest or weed control at 250 g/ha is 90% in [13], 70% in [14] and 80% in experiment [15].
Turning to `COC(=O)C1(C)ON=C(c2cc(-n3c(=O)n(C)c(=S)n(C)c3=O)c(F)cc2Cl)C1C` (stereo not shown) [Compound 145, Methyl 3-[2-chloro-5-(3,5-dimethyl-2,6-dioxo-4-thioxo-1,3,5-triazinan-1-yl)-4-fluoro-phenyl]-4,5-dimethyl-4H-isoxazole-5-carboxylate], the pest or weed control at 250 g/ha is 100% in experiment [1]; 90% in [2]; 100% in experiment [3]; 100% in [4]; 90% in experiment [5]; 100% in [6]. Moreover, the pest or weed control at 250 g/ha in experiment [7], in [8], in experiment [9], in experiment [10], in experiment [11] and in [12] was 100% in each case. Also, the pest or weed control at 250 g/ha in [13], in experiment [14] and in experiment [15] was 100% throughout.
Regarding `COC(=O)C1(C(F)(F)F)CC(c2cc(-n3c(=O)n(C)c(=S)n(C)c3=O)c(F)cc2Cl)=NO1` (stereo not shown) [Compound 262, Methyl 3-[2-chloro-5-(3,5-dimethyl-2,6-dioxo-4-thioxo-1,3,5-triazinan-1-yl)-4-fluoro-phenyl]-5-trifluoromethyl-4H-isoxazole-5-carboxylate], the pest or weed control at 250 g/ha stood at 30% in [2]; 0% in experiment [3]; 0% in experiment [4]; 30% in experiment [5]; 50% in experiment [6]; 40% in experiment [7]. The pest or weed control at 250 g/ha amounted to 30% in experiment [8]; 50% in experiment [9]; 20% in experiment [10]; 40% in experiment [11]; 60% in [12]; 50% in experiment [13]. The figures for the pest or weed control at 250 g/ha in experiment [14] and in experiment [15] were 0% and 30%, respectively.
